Reference: patent US5302705A, “6-O-methylerythromycin A oxime derivatives” (Taisho Pharmaceutical Co., Ltd., priority 1989, dated 1994)
Values after ≈ are worked out from the molar mass of the structure shown. Read-outs that look alike come from different tables or passages of the source.

How the values were obtained:
[1] = in vivo; cited from earlier work
S. aureus B1 = assay: In vitro antibacterial activity (MIC), agar dilution technique; format: cell-based; conditions: Staphylococcus aureus
Protocol: (§1) The in vitro antibacterial activity of the compounds of the present invention against various test bacteria was measured by an agar dilution technique using sensitivity test agar (Eiken) as a test medium according to the MIC method specified by the Japan Chemotherapeutic Society.
(§2) The results are represented by the MIC value (minimum inhibitory concentration to microorganisms, mcg/ml), and shown in Table 1.

S. aureus J-109 = assay: as above; format: cell-based; conditions: Staphylococcus aureus
Protocol: as §1, §2

[2] = S. aureus B1, agar dilution, sensitivity test agar (Eiken), read-out: MIC value
[3] = J109, S. aureus J-109, agar dilution, sensitivity test agar (Eiken), read-out: MIC value

MIC (S. aureus B1; [2]) [µg/mL]	MIC (S. aureus J-109; [3]) [µg/mL]	Compound	oral absorption [1]	MIC (S. aureus B1; B1, read-out: MIC value) [µg/mL]	MIC (S. aureus J-109; J109, read-out: MIC value) [µg/mL]
> 100	> 100	CC[C@H]1OC(=O)[C@H](C)[C@@H](O[C@H]2C[C@@](C)(OC)[C@@H](O)[C@H](C)O2)[C@H](C)[C@@H](O[C@@H]2O[C@H](C)C[C@H](N(C)C)[C@H]2O)[C@](C)(OC)C[C@@H](C)C(=O)[C@H](C)[C@@H](O)[C@]1(C)O [b]	–	–	–
12.5 (≈ 14 µM)	12.5 (≈ 14 µM)	CC[C@H]1OC(=O)[C@H](C)[C@@H](O[C@H]2C[C@@](C)(OC)[C@@H](O)[C@H](C)O2)[C@H](C)[C@@H](O[C@@H]2O[C@H](C)C[C@H](N(C)C)[C@H]2O)[C@](C)(OC)C[C@@H](C)C(=NOCc2ccc(C(C)C)cc2)[C@H](C)[C@@H](O)[C@]1(C)O [Compound No. 55]	–	–	–
12.5 (≈ 14.4 µM)	12.5 (≈ 14.4 µM)	CC[C@H]1OC(=O)[C@H](C)[C@@H](O[C@H]2C[C@@](C)(OC)[C@@H](O)[C@H](C)O2)[C@H](C)[C@@H](O[C@@H]2O[C@H](C)C[C@H](N(C)C)[C@H]2O)[C@](C)(OC)C[C@@H](C)C(=NOC(C)c2ccccc2)[C@H](C)[C@@H](O)[C@]1(C)O (stereo partly shown) [D]	–	–	–
> 100	> 100	CC[C@H]1OC(=O)[C@H](C)[C@@H](O[C@H]2C[C@@](C)(OC)[C@@H](O)[C@H](C)O2)[C@H](C)[C@@H](O[C@@H]2O[C@H](C)C[C@H](N(C)C)[C@H]2O)[C@](C)(O)C[C@@H](C)/C(=N\OCOCCOC)[C@H](C)[C@@H](O)[C@]1(C)O [c]	–	–	–
> 100	> 100	CC[C@H]1OC(=O)[C@H](C)[C@@H](O[C@H]2C[C@@](C)(OC)[C@@H](O)[C@H](C)O2)[C@H](C)[C@@H](O[C@@H]2O[C@H](C)C[C@H](N(C)C)[C@H]2O)[C@](C)(OC)C[C@@H](C)C(=NOC)[C@H](C)[C@@H](O)[C@]1(C)O [d]	–	–	–
25 (≈ 27.9 µM)	25 (≈ 27.9 µM)	CC[C@H]1OC(=O)[C@H](C)[C@@H](O[C@H]2C[C@@](C)(OC)[C@@H](O)[C@H](C)O2)[C@H](C)[C@@H](O[C@@H]2O[C@H](C)C[C@H](N(C)C)[C@H]2O)[C@](C)(OC)C[C@@H](C)C(=NOCCCCc2ccccc2)[C@H](C)[C@@H](O)[C@]1(C)O [Compound No. 56]	–	–	–

The next lines start with the compound.

Compound	MIC (S. aureus B1; [2]) [µg/mL]	MIC (S. aureus J-109; [3]) [µg/mL]	oral absorption [1]	MIC (S. aureus B1; B1, read-out: MIC value) [µg/mL]	MIC (S. aureus J-109; J109, read-out: MIC value) [µg/mL]
CC[C@H]1OC(=O)[C@H](C)[C@@H](O[C@H]2C[C@@](C)(OC)[C@@H](O)[C@H](C)O2)[C@H](C)[C@@H](O[C@@H]2O[C@H](C)C[C@H](N(C)C)[C@H]2O)[C@](C)(O)C[C@@H](C)C(=O)[C@H](C)[C@@H](O)[C@]1(C)O [Erythromycin A]	–	–	low and inconsistent	–	–
CC[C@H]1OC(=O)[C@H](C)[C@@H](O[C@H]2C[C@@](C)(OC)[C@@H](O)[C@H](C)O2)[C@H](C)[C@@H](O[C@@H]2O[C@H](C)C[C@H](N(C)C)[C@H]2O)[C@](C)(OC)C[C@@H](C)C(=NOCC2CC3CCC2C3)[C@H](C)[C@@H](O)[C@]1(C)O (stereo partly shown) [Compound No. 45]	12.5 (≈ 14.3 µM)	12.5 (≈ 14.3 µM)	–	–	–
CC[C@H]1OC(=O)[C@H](C)[C@@H](O[C@H]2C[C@@](C)(OC)[C@@H](O)[C@H](C)O2)[C@H](C)[C@@H](O[C@@H]2O[C@H](C)C[C@H](N(C)C)[C@H]2O)[C@](C)(OC)C[C@@H](C)C(=NOCc2c(F)cccc2F)[C@H](C)[C@@H](O)[C@]1(C)O [Compound No. 8]	12.5 (≈ 14.1 µM)	12.5 (≈ 14.1 µM)	–	–	–
CC[C@H]1OC(=O)[C@H](C)[C@@H](O[C@H]2C[C@@](C)(OC)[C@@H](O)[C@H](C)O2)[C@H](C)[C@@H](O[C@@H]2O[C@H](C)C[C@H](N(C)C)[C@H]2O)[C@](C)(OC)C[C@@H](C)C(=NOCc2c(C)cc(C)cc2C)[C@H](C)[C@@H](O)[C@]1(C)O [Compound No. 1, 6-0-methylerythromycin A 9-[0-(2,4,6-trimethylbenzyl)oxime]]	6.25 (≈ 6.98 µM)	6.25 (≈ 6.98 µM)	–	–	–
CC[C@H]1OC(=O)[C@H](C)[C@@H](O[C@H]2C[C@@](C)(OC)[C@@H](O)[C@H](C)O2)[C@H](C)[C@@H](O[C@@H]2O[C@H](C)C[C@H](N(C)C)[C@H]2O)[C@](C)(O)C[C@@H](C)C(=O)[C@H](C)[C@@H](O)[C@]1(C)O [a]	–	–	–	> 100	> 100
CC[C@H]1OC(=O)[C@H](C)[C@@H](O[C@H]2C[C@@](C)(OC)[C@@H](O)[C@H](C)O2)[C@H](C)[C@@H](O[C@@H]2O[C@H](C)C[C@H](N(C)C)[C@H]2O)[C@](C)(OC)C[C@@H](C)C(=NOCc2ccc(C(C)(C)C)cc2)[C@H](C)[C@@H](O)[C@]1(C)O [B]	6.25 (≈ 6.87 µM)	6.25 (≈ 6.87 µM)	–	–	–
CC[C@H]1OC(=O)[C@H](C)[C@@H](O[C@H]2C[C@@](C)(OC)[C@@H](O)[C@H](C)O2)[C@H](C)[C@@H](O[C@@H]2O[C@H](C)C[C@H](N(C)C)[C@H]2O)[C@](C)(OC)C[C@@H](C)C(=NOCc2c3ccccc3cc3ccccc23)[C@H](C)[C@@H](O)[C@]1(C)O [A]	6.25 (≈ 6.56 µM)	6.25 (≈ 6.56 µM)	–	–	–
